Results taken from patent US20210223229A1, “IMMUNE FUNCTION INSPECTION METHOD, CANCER PATIENT CATEGORIZATION METHOD, CANCER TREATMENT EFFICACY PREDICTION METHOD, AGENT FOR INCREASING INTRACELLULAR CALCIUM ION CONCENTRATION, AGENT FOR INCREASING SELECTIVE FUNCTION OF EFFECTOR MEMORY (EM) AND EFFECTOR (EFF) IN TUMOR TISSUE, AND METHOD FOR …” (NATIONAL UNIVERSITY CORPORATION OKAYAMA UNIVERSITY, priority 2016, published 2021).
“Also recorded” adds a separate entry of the source.

How the values were obtained:
[1] = test system: glucose transporter (Glut1) in CD8TIL; assay: Change in Glut1 expression over time in CD8TIL, MethA tumor; format: in vivo, BALB/c; settings: after 6-hour in-vitro culture; metformin 5 mg/mL from Day 7, 3 days of treatment
Protocol: Syngeneic tumor MethA (2×10^6) was intradermally injected to 8-week old BALB/c, and administration of metformin (5 mg/mL) and N-acetylcysteine (NAC, 10 mg/mL) was started from Day 7. Three days after the treatment, the tumor-infiltrating T cells (TIL) were separated, and cultured for 0, 1, 3 and 6 hours at 37° C. Therefore, the cells were stained with CD3, CD8, and glucose transporter (Glut1) antibodies, followed by analysis using a flow cytometer (FIG. 8).

[2] = test system: glucose transporter (Glut1) in CD8TIL; assay: Glut1 expression versus changes in glucose concentration in CD8TIL, MethA tumor; format: in vivo, BALB/c mice
Protocol: Syngeneic tumor (MethA) 2×10^6 was intradermally injected to 8-week old BALB/c mice, and administration of metformin (5 mg/mL) was started from Day 7. Three days after the treatment, the tumor-infiltrating T cells (TIL) were separated. After culture in the presence of a culture solution having a glucose concentration of 0, 0.1, 1.2, 6.1, 12.5, or 25 mM at 37° C. for 0, 1, 3, 6 hours, the cells were stained with CD3, CD8, and glucose transporter (Glut1) antibodies, followed by analysis using a flow cytometer (FIG. 9).

mouse CD8T cells = assay: Detection of intracellular calcium ion in mouse tumor-infiltrating and lymph node lymphocytes after metformin administration; format: in vivo, C57BL/6 mice; settings: 5 mg/mL metformin free-water-drinking for 7 days
Protocol: 2×10^5 MO-5 (OVA-expressing B16 melanoma cell strain) was intradermally inoculated to C57BL/6 mice; 7 days after the transplantation, free-water-drinking oral administration of 5 mg/mL metformin was started. Seven days after the administration (14 days after the transplantation), the lymph node (LN) and the tumor tissue (Tumor) were excised, and the tumor-infiltrating lymphocytes and lymphocytes of the lymph node were collected. After the cells were washed with FCS(−)RPMI, the cells were stained using antimouse CD3 antibody BV510, antimouse CD8 antibody APC-Cy7, 1 Fluo4, and 1 Fura Red for 30 minutes at 37° C. After the staining, the cells were washed with FCS(−)RPMI warmed at 37° C., followed by measurement of the background of intracellular calcium ions by a flow cytometer for 30 seconds. After the background measurement, the cells were immediately stimulated by 100 ng/ml PMA and 5 ionomycin, and the increase in calcium ions in the mouse CD8T cells by stimulation was measured (FIG. 1).

human CD8T cells = assay: Calcium concentration in peripheral blood CD8T cells of cancer patients before and after metformin administration; format: in vivo; settings: stage I, stage IIa and stage IV cancer patients; before vs after metformin
Protocol: In stage I, stage IIa, and stage IV cancer patients, changes in calcium concentration increase by PMA stimulation before and after metformin administration were measured. Human PBMC (human peripheral blood mononuclear cells) were collected before and after the metformin administration that was performed in accordance with the administration schedule shown in the figure, and subjected to stimulation with 100 ng/mL PMA and 5 ionomycin in the same manner as in Example 3, followed by measurement of calcium ion increase in human CD8T cells as a result of stimulation. Specifically, peripheral blood mononuclear cells (PBMC) were separated from peripheral blood by a gravity separation method, and 1×10^6 lymphocytes were incubated for 30 minutes at 37° C. in the presence of 1 μg/mL anti-human CD8 antibody and 1 μM Fluo4/FuraRed. The incubation was followed by washing with an AIM-V medium. After the washing, AIM-V was added and unstimulated (before stimulation) lymphocytes were collected by FACSCantoII for 20 minutes, thereby collecting baseline data. Thereafter, 100 ng/mL PMA and 2 μM ionomycin were added and stimulation was applied, followed by immediate collection by FACSCantoII, thereby obtaining data after stimulation. Consequently, waveforms according to the cytoplasmic calcium concentrations were detected.

[3] = test system: glucose transporter (Glut1) in tumor-infiltrating CD8T cells; assay: Glucose transporter (Glut1) expression in tumor-infiltrating CD8T cells, MethA tumor; format: in vivo, BALB/c; settings: metformin 5 mg/mL free-water-drinking from Day 7; Day 10 and Day 13; with and without PMA stimulation
Protocol: Tumor (MethA) 2×10^6 was intradermally injected to 8-week old BALB/c, and metformin (5 mg/mL) was continuously given by free-water-drinking from Day 7. Three and 6 days after the treatment (Day 10 and Day 13), the tumor-infiltrating T cells (TIL) were separated and stained with anti-CD8 antibody, and anti-glucose transporter (Glut1) antibody. Further, after stimulating culture in the presence of PMA/Ionomycin/Monencin for 6 hours, the cells were stained with anti-CD8 antibody and anti-glucose transporter (Glut1) antibody, followed by analysis using a flow cytometer.

[4] = test system: Glut1-positive tumor-infiltrating CD8T cells; assay: Multifunctionality of CD8T cells expressing Glut1, MethA tumor; format: in vivo, BALB/c
Protocol: Tumor (MethA) 2×10^6 was intradermally injected to 8-week old BALB/c, and metformin (5 mg/mL) was continuously given by free-water-drinking from Day 7. Three and 6 days after the treatment (Day 10 and Day 13), the tumor-infiltrating T cells (TIL) were separated. After stimulating culture in the presence of PMA/Ionomycin/Monencin for 6 hours, the cells were stained with anti-CD8 antibody, anti-glucose transporter (Glut1) antibody, and intracellular cytokines (IL-2/TNFα/IFNγ), followed by analysis using a flow cytometer. […] The proportion is increased by metformin administration. These facts indicate that, by confirming the Glut1 expression level in the tumor-infiltrating CD8T cells using a flow cytometer, it is possible to assume the immune status without performing a multifunctionality test. Further, by performing immunotherapy such as metformin administration, and confirming that the Glut1 expression level was increased in the CD8T cells by the therapy, it is possible to determine that the treatment had immune effects.

[5] = test system: tumor-infiltrating CD8T cells; assay: Memory phenotype of antigen-specific tumor-infiltrating CD8T cells and glucose (2-NBDG) uptake in each cell fraction; format: in vivo, C57BL/6 mice
Protocol: 2×10^5 MO-5 was intradermally inoculated to C57BL/6 mice; 7 days after the transplantation, free-water-drinking oral administration of 5 mg/mL metformin was started. Seven days after the administration (14 days after the transplantation), the tumor tissue was excised, and tumor-infiltrating lymphocytes were separated. After the separation, the lymphocytes were washed with 0.1% BSA/PBS, and staining was performed with antimouse CD8 antibody APC-Cy7, antimouse CD62L antibody BV421, antimouse CD44 antibody PerCP, antimouse KLRG1 antibody APC, and 400 μM 2-NBDG (2-[N-(7-nitrobenz-2-oxa-1,3-diazol-4-yl) amino]-2-deoxy-d-glucose) for 30 minutes at 4° C. After washing with 0.1% BSA/PBS, frequency and memory phenotype (CD44, CD62L, KLRG1) of antigen-specific tumor-infiltrating CD8T cells, and deoxyglucose (2-NBDG) uptake in each cell fraction were analyzed using a flow cytometer (FIG. 2).

[6] = test system: peripheral blood CD8T cells of cancer patients; assay: Multifunctionality of human CD8T cells under a low glucose condition (intracellular cytokine staining, FACS); format: cell-based; settings: for number of CD8T cells producing three cytokines (IL-2, TNFα, IFNγ): 10 μM metformin 6 hours pre-culture, PMA/ionomycin stimulation
Protocol: FIG. 4: Analysis of multifunctionality of human CD8T-cells under a low glucose condition. Peripheral blood lymphocytes (PBMC) w/o 10 μM metformin were cultured for 6 hours. Subsequently, after washing, the cells were cultured for 12 hours at each glucose concentration. At the final 6 hours, the cells were cultured with PMA stimulation. After the culture, intracellular cytokine was stained with an antibody, followed by FACS analysis. It was confirmed that the multifunctionality of peripheral blood CD8T cells of cancer patients were recovered by being treated with metformin in advance, even in a low glucose environment, i.e., 1.0 mM.
Cryopreserved human PBMC obtained from cancer patients were thawed and cultured for 6 hours in the presence of FCS(−)RPMI 10 μM metformin. After the culture, the cells were separated and washed with FCS(−)Glc(−)RPMI. After the washing, the cells were subjected to stimulating culture for 6 hours by 50 ng/mL PMA and 2 ionomycin using RPMI containing 0.1, 1, 10 mM Glc in the presence of 1 monensin. The cells were separated and the cell-surface molecules were stained with antihuman CD8 antibody APC-Cy7, followed by a cell permeabilization treatment. The intracellular cytokines were stained with antihuman IL-2 antibody APC and antihuman TNFα antibody BV510, and […] IFNγ antibody FITC, followed by analysis using a flow cytometer (FIG. 4).

[7] = test system: OVA-expressing B16 melanoma cell strain MO5
Protocol: The four types of groups: an untreated group (C), and, 10 days after the tumor cell inoculation, sole use of aspirin, sole use of phenformin (Phen), combined use of aspirin and phenformin, each consisting of 5 mice, were prepared. Phenformin is a biguanide-based drug, like metformin. From Day 10 of the tumor cell inoculation, phenformin contained in a feed in an amount of 0.5% was given. Further, the feed was replaced by a normal feed every four days. Specifically, a phenformin-containing feed was given only on Day 10 to Day 14, and Day 18 to Day 22. A normal feed free of phenformin was given from Day 14 to Day 18, and Day 22 to Day 26. This administration method is based on the fact that there have been fatal cases by everyday administration of phenformin due to side effects.
In contrast, aspirin (600 μg/mL) was given by free water drinking, and the water drinking was continuously performed from Day 10.

[8] = 5 mg/mL metformin free-water-drinking for 7 days, MO-5 tumor

Compound: CN(C)C(=N)N=C(N)N [metformin]
- Glut-1 expression in CD8TIL [1]: very high level
- up-regulation of GLUT-1 in CD8TIL ([2]; 6-hour in-vitro culture, CD8TIL separated from metformin-administered mice): significant up-regulation
- Glut-1 expression in CD8TIL ([2]; glucose concentration 0 mM): does not occur
- Glut-1 expression, proportion of CD8TIL ([2]; glucose concentration of 0.1 mM, metformin-administered mice): 14.3%
- intracellular calcium concentration by PMA/ionomycin stimulation (mouse CD8T cells; CD8T cells of lymph node (LN), vs non-administration group): the degree of increase was greater
- intracellular calcium concentration by PMA/ionomycin stimulation (mouse CD8T cells; CD8T cells of tumor tissue (Tumor), MO-5 tumor): greatly increased
- calcium concentration by PMA stimulation in human CD8T cells (human CD8T cells): increase
- Glut1-positive group in tumor-infiltrating CD8T cells [3]: conspicuous increase; also recorded: increased
- proportion of Glut1-positive groups with multifunctionality ([4]; metformin 5 mg/mL free-water-drinking from Day 7, PMA/Ionomycin/Monencin 6 hours): increased
- Glut1-positive and multifunctional cell groups per tumor unit ([4]; metformin administration group): increased
- glycolysis system (2-NBDG uptake) of central memory ([5]; 5 mg/mL metformin): deactivates the glycolysis system
- glycolysis system (2-NBDG uptake) of effector (eff) and effector memory (EM) ([5]; 5 mg/mL metformin): activates the glycolysis system
- number and proportion of central memory [5, 8]: reduces
- numbers and proportions of effector (eff) and effector memory (EM) [5, 8]: increased
- number of CD8T cells producing three cytokines (IL-2, TNFα, IFNγ) ([6]; glucose concentration 0.1 mM): no difference
- number of CD8T cells producing three cytokines (IL-2, TNFα, IFNγ) ([6]; glucose concentration 1 mM): significantly increased
- multifunctionality of peripheral blood CD8T cells of cancer patients ([6]; low glucose environment 1.0 mM, treated with 10 μM metformin in advance): recovered

Compound: [H]/N=C(/N)N/C(=N/[H])NCCc1ccccc1 [phenformin]
- side effects of everyday administration ([7]; everyday administration of phenformin): fatal cases
- water drinking behaviour ([7]; mouse, in vivo): the mice stopped drinking water
- tumor growth inhibitory effects ([7]; phenformin 0.5% in feed Day 10-14 and Day 18-22, aspirin 600 μg/mL free water drinking from Day 10): strong tumor growth inhibitory effects
